This is an account of results in ChEMBL document CHEMBL3352405, “Design and synthesis of sulfamoyl benzoic acid analogues with subnanomolar agonist activity specific to the LPA2 receptor” (J Med Chem, 2014).

The target of test [1] is T1, Lysophosphatidic acid receptor 3 (Homo sapiens, UniProt Q9UBY5).
T1 sequence (Q9UBY5 whole entry): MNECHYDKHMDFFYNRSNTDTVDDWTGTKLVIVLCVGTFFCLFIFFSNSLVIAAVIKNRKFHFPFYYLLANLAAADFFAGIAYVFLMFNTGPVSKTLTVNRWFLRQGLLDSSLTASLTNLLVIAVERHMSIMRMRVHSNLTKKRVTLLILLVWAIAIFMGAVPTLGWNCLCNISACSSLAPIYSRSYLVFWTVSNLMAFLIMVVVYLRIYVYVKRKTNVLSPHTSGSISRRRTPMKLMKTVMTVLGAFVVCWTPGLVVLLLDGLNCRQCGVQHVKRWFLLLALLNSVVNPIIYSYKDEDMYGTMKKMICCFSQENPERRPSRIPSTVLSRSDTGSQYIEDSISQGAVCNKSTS
The experiment in a line: Antagonist activity at human LPA3 expressed in RH7777 cells assessed as reduction in […]-induced calcium mobilization by Fura-2AM dye based Ca2+ mobilization assay.

For test [2], the target named is T2, Lysophosphatidic acid receptor 2 (Homo sapiens, UniProt Q9HBW0). The test is described as follows: Agonist activity at human LPA2 expressed in LPA1xLPA2 double knockout mouse MEF cells by Fura-2AM dye based Ca2+ mobilization assay relative to LPA 18:1. In kind it is functional, cell-based. For orientation: Calcium assays in cells follow changes in intracellular calcium, usually with a dye or a luminescent sensor.

Test [3] has as its target T2, Lysophosphatidic acid receptor 2. The experiment in a line: Agonist activity at human LPA2 expressed in LPA1xLPA2 double knockout mouse MEF cells by Fura-2AM dye based Ca2+ mobilization assay. Format: functional, cell-based.
Test [4] deals with Lysophosphatidic acid receptor 1 (Homo sapiens, UniProt Q92633). The experiment in a line: Agonist activity at human LPA1 expressed in RH7777 cells up to 10 uM by Fura-2AM dye based Ca2+ mobilization assay.
Sequence of Lysophosphatidic acid receptor 1 (Q92633 whole entry): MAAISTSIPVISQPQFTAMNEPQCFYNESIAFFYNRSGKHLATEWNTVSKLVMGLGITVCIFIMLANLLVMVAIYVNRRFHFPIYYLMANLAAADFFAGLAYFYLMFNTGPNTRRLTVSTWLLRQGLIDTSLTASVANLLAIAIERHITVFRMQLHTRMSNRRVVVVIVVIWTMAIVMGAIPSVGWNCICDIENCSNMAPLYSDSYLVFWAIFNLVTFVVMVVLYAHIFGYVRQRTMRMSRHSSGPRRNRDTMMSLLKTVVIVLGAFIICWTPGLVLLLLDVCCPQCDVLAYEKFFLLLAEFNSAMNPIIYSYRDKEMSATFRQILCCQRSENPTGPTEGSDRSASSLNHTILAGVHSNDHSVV

T2 sequence (Q9HBW0 whole entry): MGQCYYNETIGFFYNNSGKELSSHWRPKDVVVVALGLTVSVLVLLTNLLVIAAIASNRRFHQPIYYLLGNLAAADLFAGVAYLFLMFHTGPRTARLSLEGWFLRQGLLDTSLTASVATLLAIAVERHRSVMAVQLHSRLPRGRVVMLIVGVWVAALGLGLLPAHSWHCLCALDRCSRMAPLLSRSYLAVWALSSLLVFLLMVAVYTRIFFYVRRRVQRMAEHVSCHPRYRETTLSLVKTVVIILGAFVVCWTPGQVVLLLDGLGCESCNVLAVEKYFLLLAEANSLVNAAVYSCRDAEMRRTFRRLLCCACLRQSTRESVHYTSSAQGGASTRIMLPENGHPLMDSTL

As to `O=C(O)c1ccccc1SCCCN1C(=O)c2cccc3cccc(c23)C1=O`, the IC50 (usually the point on the concentration scale where inhibition reaches its midpoint) in test [1] was 6600 nM. For the same compound, in test [2], the Emax (as a rule, the greatest response seen or fitted, relative to the assay's reference) worked out at 75%.
Take `O=C(O)c1ccccc1S(=O)(=O)NCCCCCN1C(=O)c2cccc3cccc(c23)C1=O`: the Emax in test [2] was 100%. In addition, the midpoint of the response in test [3], the EC50, lay at 1420 nM.
In turn, `O=C(O)c1ccccc1S(=O)(=O)NCCCCN1C(=O)c2cccc3cccc(c23)C1=O` came in with an Emax in test [2] of 100%. Also, the EC50 (commonly the concentration giving half of the maximal effect) in test [3] stood at 110 nM.
As to `O=C(O)c1cc(Cl)ccc1S(=O)(=O)NCCCCN1C(=O)c2cccc3cccc(c23)C1=O`, the Emax in test [2] was found to be 124%.
In turn, `O=C(O)c1ccccc1S(=O)(=O)NCCCN1C(=O)c2cccc3cccc(c23)C1=O` gave a 50% effective concentration (EC50) in test [3] of 2160 nM.
Take `O=C(O)c1ccc(Br)cc1S(=O)(=O)NCCCCN1C(=O)c2cccc3cccc(c23)C1=O`: the Emax in test [2] is 100%. For the same compound, it took 50 nM to reach a half-maximal effect in test [3] (EC50).
In the same order, the values of `O=C(O)c1cc(F)ccc1S(=O)(=O)NCCCCN1C(=O)c2cccc3cccc(c23)C1=O` are 119% and 0.15 nM.
With `CCCCCCCC/C=C\CCCCCCCC(=O)OC[C@@H](O)COP(=O)(O)O` [LYSOPHOSPHATIDIC ACID], it took 350 nM to reach a half-maximal effect in test [4] (EC50).
Regarding `O=C(O)c1cc(Br)ccc1S(=O)(=O)NCCCCN1C(=O)c2cccc3cccc(c23)C1=O`, in test [2], the Emax stood at 104%. In test [3], this compound came in with an EC50 of 60 nM.
In test [2], `O=C(O)c1ccc2c(c1)S(=O)(=O)N(CCCCN1C(=O)c3cccc4cccc(c34)C1=O)C2=O` showed an Emax of 100%.
